Activity calls are given as the source filed them. No cut-off for these calls is given here.
Key:
[1] = target: Soluble guanylate cyclase alpha1/beta1 complex (Rattus norvegicus) (UniProt P19686+P20595); experiment: Stimulation of recombinant rat sGC alpha1/beta1 expressed in CHO cells assessed as formation of cGMP from GTP by measuring concentration for >3-fold increase in the basal luminescence value by luminescence based analysis; format: cell-based; conditions: filed as activator
[2] = Metabolic stability in rat hepatocytes assessed as clearance measured upto 90 mins by LC-MS/MS analysis; format: ADME, cell-based, Hepatocyte
Aorta = experiment: Vasorelaxant activity in New Zealand White rabbits aortic rings assessed as reduction in phenylephrine-induced contraction measured after 30 mins; format: functional, tissue-based; conditions: Oryctolagus cuniculus, 0.5 h
Rattus norvegicus [3] = experiment: Antihypertensive activity in spontaneous hypertensive Wistar rat assessed as decrease in systolic blood pressure iv administered as bolus injection measured for 21 days by tail-cuff method; format: functional, organism-based; conditions: dose 0.3-3 mg/kg, time 21.0 day
Rattus norvegicus [4] = experiment: Antihypertensive activity in spontaneous hypertensive Wistar rat assessed as decrease in systolic blood pressure at 0.3 mg/kg, iv administered as bolus injection measured for 21 days by tail-cuff method; format: functional; conditions: time 21 day
Rattus norvegicus [5] = experiment: Antihypertensive activity in spontaneous hypertensive Wistar rat assessed as decrease in systolic blood pressure at 1 mg/kg, iv administered as bolus injection measured for 21 days by tail-cuff method; format: functional; conditions: time 21 day
Rattus norvegicus [6] = experiment: Antihypertensive activity in spontaneous hypertensive Wistar rat assessed as decrease in systolic blood pressure at 3 mg/kg, iv administered as bolus injection measured for 21 days by tail-cuff method; format: functional; conditions: time 21 day
Rattus norvegicus [7] = experiment: Hypotensive effect in conscious normotensive Wistar rat assessed as reduction in arterial blood pressure administered orally for 21 days by tail-cuff method; format: functional, organism-based; conditions: dose 0.3-1 mg/kg, route po, time 21.0 day
Rattus norvegicus [8] = experiment: Hypotensive effect in conscious normotensive Wistar rat assessed as reduction in arterial blood pressure at 3 mg/kg, po administered for 21 days by tail-cuff method relative to control; format: functional; design: scale not given: the % may be the effect or the level left; conditions: time 21 day
Rattus norvegicus [9] = experiment: Hypotensive effect in conscious normotensive Wistar rat assessed as reduction in arterial blood pressure at 10 mg/kg, po administered for 21 days by tail-cuff method relative to control; format: functional; design: scale not given: the % may be the effect or the level left; conditions: time 21 day
Rattus norvegicus [10] = experiment: Antihypertensive activity in conscious normotensive Wistar rat model assessed as increase in heart rate at 10 mg/kg, po measured after 14 hrs by radiotelemetry; format: functional, organism-based
Rattus norvegicus [11] = experiment: Antihypertensive activity in conscious normotensive Wistar rat model assessed as increase in heart rate at 3 mg/kg, po measured after 14 hrs by radiotelemetry; format: functional, organism-based
Rattus norvegicus [12] = experiment: Antihypertensive activity in spontaneous hypertensive Wistar rat model assessed as reduction in blood pressure po administered bolus injection by radiotelemetry analysis; format: functional, organism-based; conditions: dose 0.3 mg/kg
Rattus norvegicus [13] = experiment: Antihypertensive activity in spontaneous hypertensive Wistar rat model assessed as reduction in blood pressure at 3 mg/kg, po measured after 12 hrs by radiotelemetry analysis; format: functional, organism-based
Rattus norvegicus [14] = experiment: Antihypertensive activity in spontaneous hypertensive Wistar rat model assessed as reduction in blood pressure at 10 mg/kg, po measured after 12 hrs by radiotelemetry analysis; format: functional; design: scale not given: the % may be the effect or the level left

SMILES	MEC [1] [µM]	CLhep predicted [2] [mL/min/kg]	other results
CCCC[C@H](CO)NC(=O)c1c(C)nc2c(OCCC(C)C)cccn12	1	48.3	–
CCCC[C@H](CO)NC(=O)c1c(C)nc2c(OCc3cccc(F)c3F)cccn12	0.3	25	–
Cc1nc2c(OCc3c(F)cccc3F)cccn2c1C(=O)NC(CN)c1ccc(F)c(F)c1 (single isomer, unassigned; enantiomer B)	–	–	IC50 (Aorta): 625 nM; Activity (Rattus norvegicus [3]): Dose-Dependent Effect; Activity (Rattus norvegicus [4]): -12 mmHg; Activity (Rattus norvegicus [5]): -38 mmHg; Activity (Rattus norvegicus [6]): -96 mmHg; Activity (Rattus norvegicus [7]): Dose-Dependent Effect; Activity (Rattus norvegicus [8]): 8%; Activity (Rattus norvegicus [9]): 10%; Activity (Rattus norvegicus [10]): Active; Activity (Rattus norvegicus [11]): Active; Activity (Rattus norvegicus [12]): Dose-Dependent Effect; Activity (Rattus norvegicus [13]): Active; Activity (Rattus norvegicus [14]): 20%
CCCC[C@H](CO)NC(=O)c1c(C)nc2c(OCc3c(F)cc(F)cc3F)cccn12	0.1	26.7	–
CCCC[C@H](CO)NC(=O)c1c(C)nc2c(OCc3c(F)cccc3F)cc(C)cn12	0.01	56.7	–
CCCC[C@H](CO)NC(=O)c1c(C2CC2)nc2c(OCc3c(F)cccc3F)cccn12	0.3	36.7	–
CCCC[C@H](CO)NC(=O)c1c(C)nc2c(OCc3c(F)cccc3F)cc(Cl)cn12	0.01	48.3	–
Cc1nc2c(OCC3CCC3)cccn2c1C(=O)NCCC1(O)CCCCC1	3	–	–
CCCC[C@H](CO)NC(=O)c1c(C)nc2c(OCc3c(F)cccc3F)cc(C3CC3)cn12	1	51.7	–

Source: ChEMBL document CHEMBL5338746, “New Generation of sGC Stimulators: Discovery of Imidazo[1,2-a]pyridine Carboxamide BAY 1165747 (BAY-747), a Long-Acting Soluble Guanylate Cyclase Stimulator for the Treatment of Resistant Hypertension” (J Med Chem, 2023)
